According to paper PMC9503608, “An Insight into Symmetrical Cyanine Dyes as Promising Selective Antiproliferative Agents in Caco-2 Colorectal Cancer Cells” (Molecules, 2022):

Experiments:
[1] = Photostability evaluation in PBS (absorbance decay at 376 nm); format: physicochemical; conditions: 10 µM in PBS
Experimental: The photostability of the dye 12 was evaluated using a concentration of 10 µM prepared from the dilution of 10 mM DMSO stock solution in PBS. In a 96-well plate, 100 µL of dye solution was added, irradiated in the same way as that previously described for photocytotoxicity evaluation for 120 min, and spectrophotometric readings were taken over this period at the dye 12’s maximum absorption wavelength (376 nm). Two independent experiments were performed in quadruplicate. The absorbance was normalised to simplify the analysis.

[2] = tested on: Caco-2 colorectal adenocarcinoma cell line; test: MTT cell viability assay, Caco-2; format: cell-based, human; conditions: Homo sapiens, Caco-2, 72 h
Experimental: (§1) Caco-2, MCF-7, PC-3, and NHDF cell lines were obtained from the American Type Culture Collection (ATCC) and maintained in 75 cm^2 culture flasks in a humidified atmosphere at 37 °C with 5% carbon dioxide using a LEEC Culture Safe Precision CO2 Incubator. The culture media was renewed every two to three days. The NHDF cell line was cultured in Roswell Park Memorial Institute (RPMI) medium supplemented with 10% of inactivated fetal bovine serum (FBS), 2 mM of L-glutamine, 10 mM of 4-(2-hydroxyethyl)-1-piperazineethanesulfonic acid (HEPES), 1 mM of sodium pyruvate, and 1% of antibiotic/antimycotic mixture (Ab; 10,000 U/mL of penicillin G, […] of streptomycin, and 25 µg/mL of amphotericin B). The PC-3 cell line was also cultured in RPMI 1640 medium supplemented with 10% inactivated FBS and 1% of an antibiotic mixture (Sp; 10,000 U/mL of penicillin G and […] of streptomycin). The Caco-2 and MCF-7 cell lines were grown in Dulbecco’s Modified Eagle Medium (DMEM). Caco-2 was supplemented with 20% of inactivated FBS and 1% of Sp. On the other hand, the MCF-7 medium was complemented with 10% of inactivated FBS and 1% of Ab. All manipulations were performed in a Labculture Class II A2 Biological Safety Cabinet.
(§2) After the near confluency of cultures, cells were detached with a solution of 0.125 g/L trypsin and 0.02 g/L ethylenediaminetetracetic acid (EDTA), counted using the trypan blue method, resuspended, and seeded in 96-well culture plates (100 µL, 2 × 10^4 cells/mL). Following 48 h of adherence, cells were treated with the test solutions and incubated for 72 h. This incubation, as well as the solution manipulations, were performed in an environment protected from light. After the incubation, the medium was replaced with a fresh incomplete culture medium (without FBS and Ab or Sp) and MTT solution (5 mg/mL in phosphate buffer saline (PBS)). After additional incubation for 4 h, the MTT medium was removed, formazan crystals were dissolved in DMSO, and the optical density of each well was measured at 570 nm using a microplate spectrophotometer Bio-Rad xMark. Untreated cells were used as a negative control and 5-FU as the positive control. The results were expressed as the relative cell proliferation relative to the negative control cells. […] To determine the IC50 values, Caco-2, MCF-7, PC-3, and NHDF cells were exposed to increasing concentrations between 0.001 and 100 μM.

[3] = MTT cell viability assay, Caco-2; format: cell-based, human; conditions: human, Caco-2, Caco-2 versus NHDF, 72 h; read-out: SI Caco-2 (selectivity index, cancer versus NHDF)
Experimental: as §1, §2

NHDF cell line = test: Photocytotoxicity evaluation (MTT after white LED light irradiation); format: cell-based, human; conditions: 30 min white LED light versus dark
Experimental: The photocytotoxicity evaluation was performed on the NHDF cell line similar to the above MTT cell viability assay. In contrast to 72 h continuous incubation in the dark with test solutions, cells were subjected to 30 min of constant irradiation with white light from an RGBW LED projector (220–240 V and 30 W, Luxtar) after 48 h of incubation. This light source emits radiation at wavelengths suitable for the excitation of evaluated dye (see support information) with a total fluence rate of 1.196 W/sr·m^2 (measured with a pr-650 spectrascan spectroradiometer, Photo Research Inc., Chatsworth, CA, USA). During the photocytotoxicity treatment, the device was placed over the culture cell plates supported by a closed system at a distance of 12 cm. The maximum temperature of the exposure of the cells was 37 °C. After this irradiation, cells were incubated for an additional 24 h, making up a total of 72 h incubation and exposure to the test solutions. To check the validity of the light source, the squaraine dye 4, which was previously described with relevant photodynamic activity, was used as a positive control. A photocytotoxicity assay was performed in quadruplicate, and at least two independent assays were achieved.

[4] = tested on: PC-3 prostate adenocarcinoma cell line; test: MTT cell viability assay, PC-3; format: cell-based, human
Experimental: as §1, §2

Caco-2 cells = test: Apoptosis by propidium iodide staining and flow cytometry; format: cell-based, human
Experimental: The apoptosis occurrence and influence of the dye 12 on the cell cycle were evaluated using propidium iodide (PI) staining and flow cytometry, as described by Riccardi and Nicolleti. After the near confluency of the culture, trypsinisation, and counting, Caco-2 cells were seeded (2 mL, 3 × 10^4 cells/mL) in 6-well plates. After 48 h of adherence, the cells were treated with the test solutions (3 mL and 5 mL for negative control) and incubated for 72 h. Untreated cells were used as the negative control, and sorbitol and 5-FU [56] were used as positive controls for the apoptosis and cell cycle distribution studies, respectively. After incubation, the supernatant was collected and the cells were washed with PBS and combined with the cells harvested using the trypsin treatment. This cell suspension was maintained on ice and centrifugated, and then the pellet was resuspended in 0.5 mL of PBS. The cells were fixed by adding 4.5 mL of 70% ethanol cooled at −20 °C and were stored at the same temperature. For the cytometry analysis, PBS was added to the fixed cells before centrifugation, and then the ethanolic supernatant was removed. The pellet was resuspended in 0.5 mL of PBS and 0.5 mL of DNA extraction (192 mL of 0.2 M sodium phosphate and 8 mL of […], pH 7.8) was added. After incubation for 5 min, the cells were centrifuged, the supernatant was removed, and the pellet resuspended in 0.3 mL of staining solution (20 µg/mL of PI and 0.2 mg/mL of DNase-free RNase in PBS). Using a FACSCalibur flow cytometer and the 488 nm laser line, a minimum of 20,000 events were recorded. Acquisition and apoptosis analysis was performed using BD CellQuestTM Pro 4.0.2 Software. Cell cycle analysis was performed with ModFit LT 5.0.9 software. To exclude debris and necrotic cells, events with a lower diameter (forward scatter; FCS) and reduced PI fluorescence (FL3) than the hypodiploid apoptotic cells were eliminated. Two independent experiments were performed.

decomposition (decrease in absorbance at 376 nm) ([1]; after 30 min of irradiation): approximately 4%
decomposition (decrease in absorbance at 376 nm) ([1]; after 120 min of irradiation): ~5%
IC50 ([2]; 72 h of incubation, MTT, protected from light): 0.67 µM
IC50 ([4]; Homo sapiens, 72 h of incubation, MTT, protected from light): 4.53 µM
Structure (SMILES): CN1C(=Cc2oc3ccccc3[n+]2C)Oc2ccccc21.Cc1ccc(S(=O)(=O)[O-])cc1 [Dye 12, 3-Methyl-2-((3-methylbenzo[d]oxazol-2(3H)-ylidene)methyl)benzo[d]oxazol-3-ium 4-methylbenzenesulfonate]
viability at 10 µM ([2]; single concentration of 10 µM, 72 h, mean ± SD, read-out: cell viability percentage in relation with control, Caco-2): 10 ± 0.93%
selectivity ratio at 72 h [3]: 20.9
photocytotoxicity (irradiation influence on cytotoxicity) (NHDF cell line): total absence of photocytotoxicity
viability at 10 µM ([4]; Homo sapiens, 72 h, single concentration of 10 µM, 72 h, mean ± SD, read-out: cell viability percentage in relation with control, PC-3): 9.33 ± 4.28%
SI PC-3 (selectivity index, cancer versus NHDF) ([4]; PC-3 versus NHDF, 72 h): 3.1
increase in apoptotic cells relative to untreated cells (Caco-2 cells; Caco-2, 10 µM, 72 h): 2%
apoptosis induced (percent of cells) (Caco-2 cells; Caco-2, dye 12 10 µM 72 h, sorbitol 600 mM 24 h): about 3%
